Assay: Inhibition of rat intestinal maltase

O[C@H]1[C@H](O)[C@@H](O)CN2C[C@@H](O)[C@@H](O)[C@H]12 [(-)-uniflorine A]
IC50: 12 µM

O[C@H]1[C@H]2[C@H](O)[C@H](O)CN2[C@H](O)C[C@H]1O [uniflorine B]
IC50: 4 µM

Source: BindingDB's records for doi:10.1021/np900435d (University of Florence, 2009)
